{
  "source": "BindingDB's records for doi:10.1016/j.ejmech.2017.02.016",
  "about": "(De Montfort University, 2017)",
  "key": {"[1]": {"experiment": "Inhibition of human CYP1B1 expressed in HEK293 cells assessed as potentiation of cisplatin-induced cytotoxicity by measuring cisplatin EC50 at 0.016 uM by MTT assay (Rvb = 61 +/- 8 uM)"}, "[2]": {"experiment": "Inhibition of human CYP1B1 expressed in human A2780 cells assessed as potentiation of cisplatin-induced cytotoxicity by measuring cisplatin EC50 at 0.016 uM by MTT assay (Rvb = 40 +/- 4.9 uM)"}, "[3]": {"experiment": "Inhibition of human CYP1B1 expressed in HEK293 cells assessed as potentiation of cisplatin-induced cytotoxicity by measuring cisplatin EC50 at 0.018 uM by MTT assay (Rvb = 61 +/- 8 uM)"}, "[4]": {"experiment": "Inhibition of human CYP1B1 expressed in human A2780 cells assessed as potentiation of cisplatin-induced cytotoxicity by measuring cisplatin EC50 at 0.018 uM by MTT assay (Rvb = 40 +/- 4.9 uM)"}, "[5]": {"experiment": "Inhibition of human CYP1B1 expressed in HEK293 cells assessed as potentiation of cisplatin-induced cytotoxicity by measuring cisplatin EC50 at 0.02 uM by MTT assay (Rvb = 61 +/- 8 uM)"}, "[6]": {"experiment": "Inhibition of human CYP1B1 expressed in human A2780 cells assessed as potentiation of cisplatin-induced cytotoxicity by measuring cisplatin EC50 at 0.02 uM by MTT assay (Rvb = 40 +/- 4.9 uM)"}},
  "note": "pEC50: −log10 of the molar value.",
  "data": [
    {"smiles": "O=c1cc(-c2ccccc2)oc2c1ccc1ccccc12", "values": [
      {"measurement": "pEC50", "setting": "[1]", "value": 4.40},
      {"measurement": "pEC50", "setting": "[2]", "value": 4.46}
    ]},
    {"smiles": "COc1ccc2cc(C(=O)/C=C/c3cccnc3)ccc2c1", "values": [
      {"measurement": "pEC50", "setting": "[3]", "value": 5.08},
      {"measurement": "pEC50", "setting": "[4]", "value": 5.48}
    ]},
    {"smiles": "O=C(/C=C/c1ccc2ccccc2c1)c1cccnc1", "values": [
      {"measurement": "pEC50", "setting": "[5]", "value": 6.00},
      {"measurement": "pEC50", "setting": "[6]", "value": 6.30}
    ]}
  ]
}
